Data on 21 molecules can be found in ChEMBL document CHEMBL4138157, “Synthesis, antibacterial properties and 2D-QSAR studies of quinolone-triazole conjugates” (2018).

≈ marks a conversion by molar mass, not a printed value. Where only a bound is given, the exact number is not on record here.

One test relates to Streptococcus pyogenes. As to the kind of experiment: Antibacterial activity against Streptococcus pyogenes ATCC 19615 after 18 hrs by agar dilution method. It is filed as functional. The settings on record: ATCC 19615, 18 h. In general terms: In agar dilution, organisms are placed on agar that contains the substance at set levels.
Another test concerns Pseudomonas aeruginosa. As to the kind of experiment: Antibacterial activity against Pseudomonas aeruginosa ATCC 27853 after 18 hrs by agar dilution method. As to conditions: ATCC 27853, 18 h. It is filed as functional.
For another test, the system named is Salmonella typhi. As to the kind of experiment: Antibacterial activity against Salmonella typhi ATCC 19430 after 18 hrs by agar dilution method. It is filed as functional, Salmonella enterica subsp. enterica serovar Typhi. As to conditions: Salmonella enterica, ATCC 19430, 18 h.
Another test concerns Escherichia coli. As to the kind of experiment: Antibacterial activity against Escherichia coli ATCC 25922 after 18 hrs by agar dilution method. The class given is functional. As to conditions: ATCC 25922, 18 h.

On to `CCn1cc(C(=O)O)c(=O)c2cnc(N3CCN(Cc4cn(-c5ccccc5)nn4)CC3)nc21`, for which the MIC with Streptococcus pyogenes is 556 µM (≈ 256 µg/mL); against Pseudomonas aeruginosa, 1110 µM (≈ 512 µg/mL); with Salmonella typhi, 0.3 µM (≈ 0.138 µg/mL); against Escherichia coli, 0.3 µM (≈ 0.138 µg/mL).

On to `O=C(O)c1cn(C2CC2)c2cc(N3CCN(Cc4cn(-c5ccccc5)nn4)CC3)c(F)cc2c1=O`, for which the MIC in the test on Streptococcus pyogenes was 16.4 µM (≈ 8.01 µg/mL); in the test on Pseudomonas aeruginosa, more than 2100 µM; against Salmonella typhi it was 0.2 µM (≈ 0.0977 µg/mL); in the test with Escherichia coli, 0.2 µM (≈ 0.0977 µg/mL).

For `CC(C)[C@@H](C(=O)O)n1cc(CN2CCN(c3cc4c(cc3F)c(=O)c(C(=O)O)cn4C3CC3)CC2)nn1`, the MIC against Streptococcus pyogenes, against Pseudomonas aeruginosa and against Salmonella typhi was 2440 µM (≈ 1250 µg/mL) throughout.

Regarding `CCn1cc(C(=O)O)c(=O)c2cc(F)c(N3CCN(Cc4cn(-c5ccc(C)cc5)nn4)CC3)cc21`, the MIC in the test with Streptococcus pyogenes is 2 µM (≈ 0.981 µg/mL); against Pseudomonas aeruginosa it was more than 2090 µM; in the test with Salmonella typhi it was 32.6 µM (≈ 16 µg/mL); in the test on Escherichia coli it was 0.2 µM (≈ 0.0981 µg/mL).

In the case of `O=C(O)c1cn(C2CC2)c2cc(N3CCNCC3)c(F)cc2c1=O` [CIPROFLOXACIN], the MIC stood at 3770 µM (≈ 1250 µg/mL) against Streptococcus pyogenes, 14.5 µM (≈ 4.8 µg/mL) against Pseudomonas aeruginosa and 7.2 µM (≈ 2.39 µg/mL) with Salmonella typhi.

`CCn1cc(C(=O)O)c(=O)c2cc(F)c(N3CCNCC3)cc21` [NORFLOXACIN]: the MIC against Streptococcus pyogenes was found to be 1960 µM (≈ 625 µg/mL); against Pseudomonas aeruginosa, 15 µM (≈ 4.79 µg/mL); with Salmonella typhi, 7.5 µM (≈ 2.4 µg/mL).

Turning to `C#CCN1CCN(c2cc3c(cc2F)c(=O)c(C(=O)O)cn3CC)CC1`, the MIC in the test with Streptococcus pyogenes was 1430 µM (≈ 512 µg/mL); with Pseudomonas aeruginosa, more than 2870 µM; against Salmonella typhi, 1430 µM (≈ 512 µg/mL); against Escherichia coli, more than 2870 µM.

With `CCn1cc(C(=O)O)c(=O)c2cc(F)c(N3CCN(Cc4cn(-c5ccc([N+](=O)[O-])cc5)nn4)CC3)cc21`, the minimum inhibitory concentration (MIC) is 15.3 µM (≈ 7.98 µg/mL) against Streptococcus pyogenes, more than 1960 µM in the test on Pseudomonas aeruginosa, 0.2 µM (≈ 0.104 µg/mL) against Salmonella typhi and 0.2 µM (≈ 0.104 µg/mL) in the test on Escherichia coli.

For the molecule `O=C(O)c1cn(C2CC2)c2cc(N3CCN(Cc4cn([C@@H](Cc5ccccc5)C(=O)O)nn4)CC3)c(F)cc2c1=O`, the MIC against Streptococcus pyogenes, with Pseudomonas aeruginosa and in the test on Salmonella typhi was 2230 µM (≈ 1250 µg/mL) throughout.

Consider `CCn1cc(C(=O)O)c(=O)c2cnc(N3CCN(Cc4cn(-c5ccc([N+](=O)[O-])cc5)nn4)CC3)nc21`, for which the MIC in the test with Streptococcus pyogenes is 127 µM (≈ 64 µg/mL); against Pseudomonas aeruginosa it was 1010 µM (≈ 512 µg/mL); against Salmonella typhi it was 0.2 µM (≈ 0.101 µg/mL); against Escherichia coli, 0.2 µM (≈ 0.101 µg/mL).

Turning to `CCn1cc(C(=O)O)c(=O)c2cc(F)c(N3CCN(Cc4cn([C@@H](CC(C)C)C(=O)O)nn4)CC3)cc21`, the MIC was found to be 1210 µM (≈ 625 µg/mL) with Streptococcus pyogenes, 1210 µM (≈ 625 µg/mL) with Pseudomonas aeruginosa and 2430 µM (≈ 1250 µg/mL) against Salmonella typhi.

For `C#CCN1CCN(c2ncc3c(=O)c(C(=O)O)cn(CC)c3n2)CC1`, the MIC in the test on Streptococcus pyogenes is 750 µM (≈ 256 µg/mL); against Pseudomonas aeruginosa, more than 3000 µM; with Salmonella typhi, more than 3000 µM; with Escherichia coli, 750 µM (≈ 256 µg/mL).

With `O=C(Cn1cc(CN2CCN(c3cc4c(cc3F)c(=O)c(C(=O)O)cn4C3CC3)CC2)nn1)N[C@@H](Cc1ccccc1)C(=O)O`, the MIC with Streptococcus pyogenes, in the test on Pseudomonas aeruginosa and with Salmonella typhi was 2020 µM (≈ 1250 µg/mL) each time.

For `C[C@@H](C(=O)O)n1cc(CN2CCN(c3cc4c(cc3F)c(=O)c(C(=O)O)cn4C3CC3)CC2)nn1`, the MIC in the test on Streptococcus pyogenes, against Pseudomonas aeruginosa and against Salmonella typhi was 2580 µM (≈ 1250 µg/mL) in each case.

`CCn1cc(C(=O)O)c(=O)c2cc(F)c(N3CCN(Cc4cn(CC(=O)N[C@@H](Cc5ccccc5)C(=O)O)nn4)CC3)cc21`: the figures for the MIC with Streptococcus pyogenes, in the test on Pseudomonas aeruginosa and in the test on Salmonella typhi were 1030 µM (≈ 625 µg/mL), 2060 µM (≈ 1250 µg/mL) and 2060 µM (≈ 1250 µg/mL), respectively.

As for `CCn1cc(C(=O)O)c(=O)c2cnc(N3CCNCC3)nc21` [PIPEMIDIC ACID], the values for the MIC against Streptococcus pyogenes, in the test with Pseudomonas aeruginosa and against Salmonella typhi were 2060 µM (≈ 625 µg/mL), 64.3 µM (≈ 19.5 µg/mL) and 7.9 µM (≈ 2.4 µg/mL), respectively.

`CCn1cc(C(=O)O)c(=O)c2cc(F)c(N3CCN(Cc4cn([C@H](C(=O)O)C(C)C)nn4)CC3)cc21`: the MIC worked out at 1250 µM (≈ 625 µg/mL) against Streptococcus pyogenes, 2500 µM (≈ 1250 µg/mL) against Pseudomonas aeruginosa and 2500 µM (≈ 1250 µg/mL) in the test with Salmonella typhi.

For the molecule `CC(C)C[C@@H](C(=O)O)n1cc(CN2CCN(c3cc4c(cc3F)c(=O)c(C(=O)O)cn4C3CC3)CC2)nn1`, the MIC with Streptococcus pyogenes, with Pseudomonas aeruginosa and against Salmonella typhi was 2370 µM (≈ 1250 µg/mL) in each case.

For `CCn1cc(C(=O)O)c(=O)c2cnc(N3CCN(Cc4cn(CC(=O)N[C@@H](Cc5ccccc5)C(=O)O)nn4)CC3)nc21`, the results for the MIC against Streptococcus pyogenes, in the test on Pseudomonas aeruginosa and with Salmonella typhi were 2120 µM (≈ 1250 µg/mL), 2120 µM (≈ 1250 µg/mL) and 212 µM (≈ 125 µg/mL), respectively.

Take `CCn1cc(C(=O)O)c(=O)c2cnc(N3CCN(Cc4cn([C@@H](C)C(=O)O)nn4)CC3)nc21`: the MIC came out at 1370 µM (≈ 625 µg/mL) against Streptococcus pyogenes, 1370 µM (≈ 625 µg/mL) in the test on Pseudomonas aeruginosa and 2740 µM (≈ 1250 µg/mL) in the test on Salmonella typhi.

With `C#CCN1CCN(c2cc3c(cc2F)c(=O)c(C(=O)O)cn3C2CC2)CC1`, the MIC was more than 2770 µM with Streptococcus pyogenes, more than 2770 µM in the test with Pseudomonas aeruginosa, 1390 µM (≈ 512 µg/mL) with Salmonella typhi and more than 2770 µM with Escherichia coli.

By MIC is commonly meant the lowest concentration found to suppress growth. Read a low MIC as inhibition by little substance.
